The values below come from US20190281828A1 (priority 2016, published 2019).

What is called chromatographic logP is a lipophilicity value derived from retention on a column.

In series [1] the test system is Septoria tritici. The following applies: 500 ppm of active ingredient; preventive spray on young wheat plants; evaluated 24 days after inoculation.
Description: (§6) • Solvent: 5% by volume of Dimethyl sulfoxide • 10% by volume of Acetone • Emulsifier: 1 μl of Tween® 80 per mg of active ingredient
(§7) The active ingredients are made soluble and homogenized in a mixture of Dimethyl sulfoxide/Acetone/Tween® 80 and then diluted in water to the desired concentration.
(§8) Control plants are treated only with an aqueous solution of Acetone/Dimethyl sulfoxide/Tween® 80.
After 24 hours, the plants are contaminated by spraying the leaves with an aqueous suspension of Septoria tritici spores. The contaminated wheat plants are incubated for 72 hours at 18° C. and at 100% relative humidity and then for 21 days at 20° C. and at 90% relative humidity.
The test is evaluated 24 days after the inoculation.
The next series concerns Alternaria alternata. Briefly: In vitro test for ED50 values, liquid culture, Alternaria alternata. The format is cell-based. As to conditions: inhibition of spore germination and mycelium growth, 4 to 7 days incubation. An excerpt:
(§1) Example E: In Vitro Test for the Calculation of ED50-Values; Comparison of Compounds According to the Invention Vs. Compounds Encompassed by WO 2010/146116 A1
(§2) • Solvent: DMSO • Culture medium: 14.6 g anhydrous D-glucose (VWR), 7.1 g Mycological Peptone (Oxoid), 1.4 g granulated Yeast Extract (Merck) per 1 liter water • Inoculum: spore suspension
(§3) Fungicides were solubilized in DMSO and the resulting solutions used to prepare test solutions of different fungicide concentrations in the required range. The final concentration of DMSO used in the assay was <1% by volume.
(§4) A spore suspension was prepared and diluted to the desired spore density.
(§5) Fungicides were evaluated for their ability to inhibit spore germination and mycelium growth in liquid culture assay. The compounds were added in the desired concentration to the culture medium with spores. After 4 to 7 days incubation, fungi-toxicity of compounds was determined by spectrometric measurement of mycelium growth. Inhibition of fungal growth was determined by comparing the absorbance values in wells containing the fungicides with the absorbance in control wells without fungicides.

A short description of the next series: physchem. As to conditions: reversed phase HPLC column.
Another series deals with Puccinia recondita. As to conditions: 500 ppm of active ingredient; preventive spray on young wheat plants; evaluated 11 days after inoculation.
The next series deals with Pyricularia oryzae. Format: cell-based. As to conditions: inhibition of spore germination and mycelium growth, liquid culture, 4 to 7 days incubation.
The subject of a further series is Uromyces appendiculatus. The following applies: 500 ppm of active ingredient; preventive spray on young bean plants; evaluated 11 days after inoculation.
The next series has as its system Sphaerotheca fuliginea. As to conditions: 500 ppm of active ingredient; preventive spray on young gherkin plants; evaluated 15 days after inoculation.
Series [2] has as its system Septoria tritici. In words: In vitro test for ED50 values, liquid culture, Septoria tritici. The format is cell-based. The following applies: inhibition of spore germination and mycelium growth, 4 to 7 days incubation.
Description: as §1, §2, §3, §4, §5

In another series the test system is Botrytis cinerea. In words: In vitro test for ED50 values, liquid culture, Botrytis cinerea. The format is cell-based. As to conditions: inhibition of spore germination and mycelium growth, 4 to 7 days incubation.
Description: as §1, §2, §3, §4, §5

Description for Puccinia recondita: Example A: In Vivo Preventive Test on Puccinia recondita (Brown Rust on Wheat)
as §6, §7, §8
After 24 hours, the plants are contaminated by spraying the leaves with an aqueous suspension of Puccinia recondita spores. The contaminated wheat plants are incubated for 24 hours at 20° C. and at 100% relative humidity and then for 10 days at 20° C. and at 70-80% relative humidity.
(§9) The test is evaluated 11 days after the inoculation.
Description for Sphaerotheca fuliginea: Example C: In Vivo Preventive Test on Sphaerotheca fuliginea (Powdery Mildew on Cucurbits)
as §6, §7, §8
After 24 hours, the plants are contaminated by spraying the leaves with an aqueous suspension of Sphaerotheca fuliginea spores. The contaminated gherkin plants are incubated for 72 hours at 18° C. and at 100% relative humidity and then for 12 days at 20° C. and at 70-80% relative humidity.
The test is evaluated 15 days after the inoculation.
Description for Uromyces appendiculatus: as §6, §7, §8
After 24 hours, the plants are contaminated by spraying the leaves with an aqueous suspension of Uromyces appendiculatus spores. The contaminated bean plants are incubated for 24 hours at 20° C. and at 100% relative humidity and then for 10 days at 20° C. and at 70-80% relative humidity.
as §9
Description for physchem: Calibration was done with straight-chain alkan2-ones (with 3 to 16 carbon atoms) with known Log P values (measurement of Log P values using retention times with linear interpolation between successive alkanones).

`Clc1ccc(Oc2ccc(C3(Cn4cncn4)OCCO3)c(Cl)n2)cc1` [I.01, 2-chloro-6-(4-chlorophenoxy)-3-[2-(1,2,4-triazol-1-ylmethyl)-1,3-dioxolan-2-yl]pyridine]: the efficacy entry in the series with Septoria tritici [1], in the series on Puccinia recondita, in the series on Uromyces appendiculatus and in the series on Sphaerotheca fuliginea was “at least 70%” throughout. Moreover, the “Alternaria alternata ED50 value in ppm” value in the series with Alternaria alternata came to 0.12 ppm. Besides, in “physchem”, the chromatographic logP was determined as 2.86. The “Pyricularia oryzae ED50 value in ppm” value in the series with Pyricularia oryzae is recorded as 0.56 ppm.

Consider `CC1COC(Cn2cncn2)(c2ccc(Oc3ccc(Cl)cc3)nc2Cl)O1` (stereo not drawn) [I.02], for which, in the series with Septoria tritici [2], the “Septoria tritici ED50 value in ppm” value came to 0.008 ppm. The “Botrytis cinerea ED50 value in ppm” value in the series on Botrytis cinerea is reported as 2.7 ppm. Also, in the series on Pyricularia oryzae, the “Pyricularia oryzae ED50 value in ppm” value is given as 1.2 ppm.

`Clc1ccc(Oc2cc(Cl)c(C3(Cn4cncn4)OCCO3)cn2)cc1` [reference compound]: the “Alternaria alternata ED50 value in ppm” value in the series with Alternaria alternata was found to be 0.5 ppm. Moreover, the “Pyricularia oryzae ED50 value in ppm” value in the series with Pyricularia oryzae stood at 1.3 ppm.

For `CC1COC(Cn2cncn2)(c2cnc(Oc3ccc(Cl)cc3)cc2Cl)O1` (stereo not drawn) [reference compound], the “Septoria tritici ED50 value in ppm” value with Septoria tritici [2] was 0.013 ppm. In the series with Botrytis cinerea, the “Botrytis cinerea ED50 value in ppm” value worked out at 8.9 ppm. In addition, the “Pyricularia oryzae ED50 value in ppm” value with Pyricularia oryzae turned out to be 9.5 ppm.
